Experimental findings from publication PMC7145423, “Cooperative enzymatic control of N-acyl amino acids by PM20D1 and FAAH” (eLife, 2020) are described below.

Common to all, as to format: biochemical
Test [1] concerns the target T1, PM20D1-flag (Mus musculus, UniProt Q8C165).
T1 construct: flag-tagged, secreted, conditioned medium of transfected HEK293T cells
T1 sequence (Q8C165 25-503): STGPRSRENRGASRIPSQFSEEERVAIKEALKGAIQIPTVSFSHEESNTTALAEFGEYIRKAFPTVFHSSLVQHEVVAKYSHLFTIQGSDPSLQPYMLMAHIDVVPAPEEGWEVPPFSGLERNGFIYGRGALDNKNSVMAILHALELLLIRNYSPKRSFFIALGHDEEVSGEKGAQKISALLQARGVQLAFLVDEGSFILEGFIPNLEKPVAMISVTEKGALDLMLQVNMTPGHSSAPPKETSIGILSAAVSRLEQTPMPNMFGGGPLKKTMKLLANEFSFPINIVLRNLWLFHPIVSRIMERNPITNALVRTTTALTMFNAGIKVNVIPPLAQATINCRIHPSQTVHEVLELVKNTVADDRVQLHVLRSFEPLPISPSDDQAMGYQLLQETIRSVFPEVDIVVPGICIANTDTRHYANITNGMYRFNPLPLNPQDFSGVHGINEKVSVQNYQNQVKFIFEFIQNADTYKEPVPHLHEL
Kind of test: hydrolysis, LC-MS. The conditions noted are these: 100 µM substrate, 100 µg conditioned medium protein, PBS, 1 hr 37°C.

The next test concerns the target T2, FAAH-flag (Mus musculus, UniProt O08914).
T2 construct: C-terminal flag tag, transient transfection in HEK293T, cell lysate
T2 sequence (O08914 1-579): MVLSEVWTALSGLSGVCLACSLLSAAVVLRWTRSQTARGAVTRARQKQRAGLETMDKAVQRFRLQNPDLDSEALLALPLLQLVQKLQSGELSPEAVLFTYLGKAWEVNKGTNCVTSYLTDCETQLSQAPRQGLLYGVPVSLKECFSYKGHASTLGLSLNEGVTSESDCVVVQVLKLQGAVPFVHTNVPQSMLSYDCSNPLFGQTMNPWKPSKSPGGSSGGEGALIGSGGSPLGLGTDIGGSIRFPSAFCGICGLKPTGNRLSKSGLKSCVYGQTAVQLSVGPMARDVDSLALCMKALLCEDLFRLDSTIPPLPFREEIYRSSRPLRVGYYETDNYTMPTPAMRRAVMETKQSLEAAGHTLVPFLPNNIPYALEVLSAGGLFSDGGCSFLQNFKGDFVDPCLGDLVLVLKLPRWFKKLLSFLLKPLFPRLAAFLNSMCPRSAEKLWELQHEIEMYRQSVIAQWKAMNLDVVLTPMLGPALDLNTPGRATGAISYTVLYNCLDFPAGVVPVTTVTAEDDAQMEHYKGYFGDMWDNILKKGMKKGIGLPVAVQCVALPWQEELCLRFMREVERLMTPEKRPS
The experiment in a line: hydrolysis, LC-MS. The conditions noted are these: 100 µM substrate, 100 µg lysate protein, PBS, 1 hr 37°C.

Test [2] concerns the target T1, PM20D1-flag. The experiment in a line: condensation with amino acid (synthase direction), LC-MS. The conditions noted are these: co-substrates Gly, Ser or Phe; PBS, 1 hr 37°C.

Structures are written as SMILES.

On to `CCCCC/C=C\C/C=C\C/C=C\C/C=C\CCCC(=O)NCC(=O)O` [C20:4-Gly], for which, at PM20D1-flag [1], the “hydrolysis, LC-MS” value is “PM20D1 exhibited robust hydrolysis activity only on C20:4-Gly”.

For the compound `CCCCC/C=C\C/C=C\C/C=C\C/C=C\CCCC(=O)N[C@@H](CO)C(=O)O` [C20:4-Ser], the “hydrolysis, LC-MS” value on FAAH-flag is listed as “A strong preference was observed for C20:4-Ser over the other three N-acyl amino acid substrates”.

In the case of `CCCCC/C=C\C/C=C\C/C=C\C/C=C\CCCC(=O)NCCO` [anandamide], the “hydrolysis, LC-MS” value at FAAH-flag is on record as “FAAH showed robust hydrolysis activity with anandamide as a substrate”.

`CCCCC/C=C\C/C=C\C/C=C\C/C=C\CCCC(=O)O` [arachidonic acid]: the “condensation with amino acid (synthase direction), LC-MS” value on PM20D1-flag [2] is recorded as “PM20D1 also efficiently catalyzed the condensation of arachidonic acid with all three”.
